Measured values from patent US20250019705A1, “PHARMACEUTICAL COMPOSITION FOR PREVENTING OR TREATING TARGET CANCER INCLUDING BRCA-SPECIFIC siRNA AS ACTIVE INGREDIENT” (KOREA INSTITUTE OF SCIENCE AND TECHNOLOGY, priority 2023, published 2025).

Key:
Assay type in all cases: cell-based, mouse
[1] = system: ID8 cells; assay: PARP inhibitor IC50 analysis through MTS assay in ID8 cells incubated with vSIRPα-siBRCA
Description: (§1) FIG. 9A, FIG. 9B, FIG. 9C, and FIG. 9D illustrate a result of treating ID8 cells incubated with vSIRPα-siBRCA with a PARP inhibitor (Olaparib or Talazoparib) and performing IC50 analysis through MTS assay.
(§2) Knockdown and knockout of BRCA genes were highly correlated with the efficacy of synthetic lethal cell death induction of the PARP inhibitor. Therefore, whether the PARP inhibitor, after silencing the expression of BRCA1/2, could induce apoptosis of tumor cells was required confirmation. BRCA1 and/or BRCA2 may be effectively knocked down by treating ID8 cells with the vSIRPα-siBRCA conjugates. Therefore ID8 cells were treated with the vSIRPα-siBRCA conjugates for 48 hours and then treated with Talazoparib at various concentrations for 72 hours.

[2] = system: phospho-H2AX (γH2AX); assay: DNA damage analysis by flow cytometry after PARP inhibitor in BRCA silenced cells; details: for γH2AX increase compared with control group: 0.01 μM Talazoparib
Description: The ID8 cells were dispensed in a 6-well plate at 2×10^5 cells/dish and incubated for 48 hours with PBS, vSIRPα-siBRCA1, vSIRPα-siBRCA2, and vSIRPα-siBRCA1/2. Subsequently, the cells were trypsinized and dispensed in a 6-well plate at 2×10^5 cells/dish, and treated with Olaparib or Talazoparib at a predetermined concentration for 24 to 48 hours.
Subsequently, the cells were detached with Trypsin-EDTA, blocked for 30 minutes using a PBS solution containing 1% FBS, and then a phospho-H2AX antibody was incubated for 2 hours. Thereafter, after PBS washing, flow cytometry was performed using a FACS device to measure phospho-H2AX antibody staining
To evaluate the level of PARP inhibitor-mediated DNA damage in BRCA gene-silenced cells, the expression levels of phospho-H2AX (γH2AX), a DNA damage marker, were measured by flow cytometry.
ID8 cells were treated with vSIRPα-siBRCA1 and vSIRPα-siBRCA2 alone or in combination, respectively, and after 48 hours, each cell type was treated with a PARP inhibitor, Talazoparib, and incubated for 48 hours.

[3] = system: BRCA1-deficient ID8 cells; assay: PARP inhibitor IC50 analysis through MTS assay in BRCA1-deficient ID8 cells with BRCA2 knockdown; details: BRCA1-deficient ID8 cells with BRCA2 knocked down
Description: as §1, §2

[4] = BRCA1-knockdown (silenced) ID8 cells, vSIRPα-siBRCA 48 hours then PARP inhibitor 72 hours
[5] = BRCA1/2 silenced ID8 cells (vSIRPα-siBRCA1 and vSIRPα-BRCA2 together), 48 hours then PARP inhibitor 72 hours
[6] = BRCA2-knockdown (silenced) ID8 cells, vSIRPα-siBRCA 48 hours then PARP inhibitor 72 hours

Structure (SMILES)	fold reduction of IC50 of PARP inhibitor vs BRCA normal-expressing (control) ID8 cells [1, 4]	fold reduction of IC50 of PARP inhibitor vs BRCA normal-expressing (control) ID8 cells [1, 5]	fold reduction of IC50 of PARP inhibitor vs BRCA normal-expressing (control) ID8 cells [1, 6]	γH2AX increase compared with control group ([2]; BRCA1/2 silenced ID8 cells (both conjugates 48 hours))	γH2AX increase compared with control group ([2]; BRCA1 silenced ID8 cells (vSIRPα-siBRCA1 48 hours))	γH2AX increase compared with control group ([2]; BRCA2 silenced ID8 cells (vSIRPα-siBRCA2 48 hours))	expression levels of γH2AX ([2]; ID8-sgBRCA1/2 cells, Talazoparib 48 hours)	fold reduction of IC50 of PARP inhibitor by BRCA2 knockdown [3]
O=C(c1cc(Cc2n[nH]c(=O)c3ccccc23)ccc1F)N1CCN(C(=O)C2CC2)CC1 [Olaparib]	about 3.76 fold	about 13.97 fold	about 2.77 fold	–	–	–	–	–
Cn1ncnc1[C@H]1c2n[nH]c(=O)c3cc(F)cc(c23)N[C@@H]1c1ccc(F)cc1 [Talazoparib]	3.23 fold	28.11 fold	4.34 fold	~3.06 fold	about 1.32 fold	~2.16 fold	significantly increased	about 3.6 fold
